Experimental data published in PubChem BioAssay AID179 (DTP/NCI, 2004).
The source made the active and inactive calls.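 How the source made its calls: active means compounds giving half or more protection of infected cells from virus-caused growth loss, again on retest; inactive means the rest.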

Test system: CEM cells HIV-1 protection, formazan growth assay
Experiment: NCI AIDS Antiviral Assay
Conditions: for IC50: measured here: growth of uninfected CEM cells
Method in brief: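 CEM (human) cells, HIV-1 infected vs uninfected, 5-point dosing, formazan growth read-out. Retest threshold 50% protection.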

| Structure (SMILES) | EC50 [µM] | IC50 [µM] | outcome |
| --- | --- | --- | --- |
| COC1OC(CCC2NC(CO)C(O)C(O)C2O)C(O)C(O)C1O (stereo unspecified) | > 200 | > 200 |  |
| O=C(c1ccccc1)N1C2C3CC(OCc4ccccc4)(OCc4ccccc4)C(O3)C21 (stereo unspecified) | > 17 | > 17 |  |
| O=C1OC2C(O)C3CC1C2O3 (stereo unspecified) | > 1580 | > 1580 |  |
| CCOC(=O)C(=[N+]=[N-])C(=O)C1(C(=O)OCC)CCN(C(=O)c2ccccc2)C1=O (stereo unspecified) | > 200 | > 200 |  |
| O=C1c2c(F)c(F)c(F)c(F)c2SC2=NCCN12 | > 20 | 2 |  |
| CC1(c2ccccc2)OC(=O)c2c1ccc1ccccc21 (stereo unspecified) |  |  | inactive |
| O=C1/C(=C/c2ccco2)N=C2Sc3c(nc[nH]c3=O)N12 | > 200 | > 200 |  |
| O=C(CCC(=O)Nc1ccc(Cl)c(Cl)c1)Cc1nc2ccccc2o1 | > 182 | > 182 |  |
| COC(=O)C1=C2c3ccccc3-c3ccccc3C2(O)C(C(=O)OC)C1=O (stereo unspecified) | > 1.45 | > 1.45 |  |
| CCC(N)CS(=O)(=O)O (stereo unspecified) | > 200 | > 200 |  |
| Cc1cc(-c2ccccc2)oc(=O)c1NC(=O)c1ccccc1 | > 200 | 97.7 |  |
| CC1=CC[P+](Cc2ccccc2)(c2ccccc2)C1 (stereo unspecified) | > 724 | 40.7 |  |
| CCOC(=O)/C=C(\N=P(c1ccccc1)(c1ccccc1)c1ccccc1)C(F)(F)C(F)(F)C(F)(F)C(F)(F)C(F)(F)F | > 200 | > 200 |  |
| CN(C)c1ccc2nc3c(cc(Nc4cccc5cccc(Nc6cc7ccccc7c7nc8ccc(N(C)C)cc8[o+]c67)c45)c4ccccc43)[o+]c2c1 | > 100 | 15.1 |  |
| NC(CSS(=O)(=O)O)=NCCCCC1CCCCC1 | > 200 | 30.9 |  |
| COc1cc2cnc3c4cc(OC)c(OC)cc4ccc3c2cc1OC |  |  | inactive |
| O=C(CSc1cc(-c2ccc(Cl)cc2)s[s+]1)c1ccccc1 | > 200 | 52.5 |  |
| O=C1C2(CCCC13OC3c1ccccc1)OC2c1ccccc1 (stereo unspecified) | > 200 | 115 |  |
| COc1c(OC)c(OC)c2c(=O)cc(-c3ccc4c(c3)OCO4)oc2c1OC | > 200 | > 200 |  |
| CCOC(=O)CCC(NC(=O)c1ccc(NC(OC)c2nc3cc(C(F)(F)F)ccc3nc2-c2ccccc2)cc1)C(=O)OCC (stereo unspecified) | > 8.13 | > 8.13 |  |
| CCCCN(CCCC)c1c([N+](=O)[O-])c(=O)nc2ccccn12 | > 794 | 1.7 |  |
| COc1ccc(SSc2ccc(OC)cc2C(=O)O)c(C(=O)O)c1 | > 200 | > 200 |  |
| CCCC/C=C(/CCCNCCc1ccccc1)[Si](C)(C)C | > 81.3 | > 81.3 |  |

| Structure (SMILES) | EC50 [µM] | IC50 [µM] | outcome |
| --- | --- | --- | --- |
| O=C(OCCc1ccccc1)c1cc2cc(O)c(O)cc2cn1 | > 8.32 | > 8.32 |  |
| CCOC(Cc1c(N)[nH]c(=S)[nH]c1=O)OCC | > 200 | > 200 |  |
| CC(C)c1ccc2c(c1)CCC1C2(C)CCCC1(C)C(O)c1ccccc1 (stereo unspecified) | > 200 | 38 |  |
| COC(=O)C1(Cc2ccc(C)cc2)Cc2c(C)cccc2C1=O (stereo unspecified) | > 200 | 8.91 |  |
| CC(=O)OCC1OC([n+]2c([O-])cc(=O)n3ccsc32)C(OC(C)=O)C1OC(C)=O (stereo unspecified) | > 589 | > 589 |  |
| CC(=O)Nc1cc(Nc2cc(=O)[nH]c(=O)[nH]2)ccc1C | > 200 | > 200 |  |
| CCOC(=O)CN1CCC(C2(c3cc4ccccc4[nH]3)OCCO2)CC1 | > 363 | > 363 |  |
| O=C/C1=C/C2=Cc3ccccc3C=C(/C=C(/C=O)C1)C2 | > 100 | 43.7 |  |
| CC(=O)N(CCN1C(=O)c2ccccc2C1=O)CCN1C(=O)c2ccccc2C1=O |  |  | inactive |
| O=C(CN1C(=O)c2ccccc2C1=O)OCC1CCCN2CCCCC12 (stereo unspecified) | > 200 | > 200 |  |
| Cc1ccc(N2C(=O)/C(=C/c3ccc(N(CCC#N)CCC#N)cc3)CC2(O)c2ccccc2)cc1 (stereo unspecified) | > 7.94 | > 7.94 |  |
| CCOC(=O)C1=C(Nc2ccc(Cl)cc2Cl)OC/C1=N\NS(=O)(=O)c1ccc(C)cc1 | > 28.2 | > 28.2 |  |
| Cc1ccc(N=Nc2ccc(O)c(CN(C)C)c2)cc1 | > 200 | 21.9 |  |
| COc1cc(C[C@@]2(O)C(=O)OCC2Cc2ccc(OC)c(OC)c2)ccc1O (stereo partly specified) | > 200 | 36.3 |  |
| O=[N+]([O-])c1ccc2c(c1)Sc1ccccc1N2 | > 200 | 60.3 |  |
| c1csc(-c2ccsc2-c2ccsc2)c1 | > 200 | 87.1 |  |
| CNC(=O)CNC(=O)c1ccccc1SC(=O)CCCC[n+]1ccccc1 | 1.95 | 22.9 |  |
| O=c1oc2ccccc2n1Cc1ccc(Cl)cc1 | > 200 | 79.4 |  |
| CSc1nc(SC)c2ncn(C3CC(Oc4ccc(C)cc4)C(COc4ccc(C)cc4)O3)c2n1 (stereo unspecified) | > 100 | 66.1 |  |
| COc1cc2cc(C(=O)N3CC(CCl)c4ccc(N)cc43)[nH]c2c(OC)c1OC (stereo unspecified) | > 1.51 | 0.295 |  |
| COc1cc2c(cc1OC)C1CNC(C2)c2cc(OC)c(OC)cc21 (stereo unspecified) | > 200 | > 200 |  |
| CC(=O)N1OC(C)CC1Nc1ccc(Br)cc1 (stereo unspecified) | > 200 | 25.1 |  |
| Cc1cccc(C)c1NC(=O)CCCC(=O)C1CCC/C1=N\NC(=O)C(=O)NN (stereo unspecified) | > 64.6 | > 64.6 |  |

| Structure (SMILES) | EC50 [µM] | IC50 [µM] | outcome |
| --- | --- | --- | --- |
| CCC(C)C(CC)C(=O)NC(N)=O (stereo unspecified) | > 200 | > 200 |  |
| CC(=O)C(CN(C)Cc1ccccc1)C(c1ccccc1)c1c(O)c2ccccc2oc1=O (stereo unspecified) | > 38.9 | > 38.9 |  |
| OC1C2CCCC1C1(CCCCC1)C1CCCCC21O (stereo unspecified) |  |  | inactive |
| CN1C(=O)C2(C=CC(O)CC2)c2ccccc21 (stereo unspecified) | > 200 | > 200 |  |
| CC/C=C\C/C=C\C/C=C\CCCCCCCC(=O)NC(CCC(N)=O)C(=O)O (stereo unspecified) | > 200 | 43.7 |  |
| OC1NC2Nc3ccccc3NC2NC1O (stereo unspecified) | > 200 | > 200 |  |
| COc1cc2c(c(OC)c1OC)C(=O)[C@@H](OC(=O)CCCCl)[C@H]2N | > 200 | > 200 |  |
| CC(=O)Nc1cc2cc(NS(=O)(=O)c3cc(C(F)(F)F)cc(C(F)(F)F)c3)ccc2oc1=O | > 27.5 | > 27.5 |  |
| COc1cccc(C2(C#N)CCN(C)CC2)c1 | > 1070 | 537 |  |
| COc1ccc(C2C(Cl)C(=O)N2NC(=O)c2ccc(N)cc2)cc1 (stereo unspecified) | > 200 | > 200 |  |
| CCOC(=O)C(O)(NC(C)=O)C(F)(F)F (stereo unspecified) | > 200 | > 200 |  |
| CC1C2C=CC1C(c1c3ccc(=O)cc-3oc3cc(O)ccc13)C2C(=O)O (stereo unspecified) | 2.4 | 51.3 |  |
| CC(C)SC1SCC2C(=O)N(C)C3(CC3C)C(=O)OCC(NC(=O)c3nc4ccccc4cc3O)C(=O)NC(C)C(=O)N(C)C1C(=O)N(C)C1(CC1C)C(=O)OCC(NC(=O)c1nc3ccccc3cc1O)C(=O)NC(C)C(=O)N2C (stereo unspecified) | > 11.2 | 0.00363 |  |
| c1ccc2c(c1)CCN2CCN1CCc2ccccc21 | > 200 | 145 |  |
| O=c1c2ccccc2c2nccc3c4ccccc4n1c32 | > 37.2 | > 37.2 |  |
| CC12CCC(=O)N1[C@@H](c1ccccc1)[C@@H](c1ccccc1)O2 (stereo partly specified) | > 234 | > 234 |  |
| CC1=NC2C(=O)N(C)C(=O)N(C)C2n2c(O)ccc21 (stereo unspecified) | > 2 | > 2 |  |
| c1cncc(CN2CCCCCC2)c1 |  |  | inactive |
| COc1ccc(C(O)C(C)C(O)(C(F)(F)F)C(F)(F)F)cc1 (stereo unspecified) | > 200 | 95.5 |  |
| COC(=O)[C@@H]1[C@H]2CC[C@]3(C)[C@@H](OC(C)=O)CC[C@H]3[C@@H]2CC[C@H]1C1(C)SCCS1 | 10 | 24 |  |
| CC1C(n2[nH]c(=O)n(C)c2=O)c2ccccc2-n2c(=O)n(C)c(=O)n21 (stereo unspecified) | > 64.6 | > 64.6 |  |
| C=CCn1nnc2ccccc2c1=O | > 692 | > 692 |  |
| O=P(NC1CCCCC1)(NC1CCCCC1)NC1CCCCC1 | > 200 | > 200 |  |

| Structure (SMILES) | EC50 [µM] | IC50 [µM] | outcome |
| --- | --- | --- | --- |
| COc1ccc(C2=C(Cl)c3cc(OC)c(OC)cc3C2=O)cc1OC | > 200 | 1.45 |  |
| Cc1cc2c(cc1Cl)SC(C(=O)c1ccc(Cl)c(Cl)c1)=NS2(=O)=O |  |  | inactive |
| CN(c1ccccc1)c1cc2ccccc2nn1 | > 200 | 93.3 |  |
| Cc1ccc(Nc2nnc(CSc3ccc(Cl)cc3)s2)c(S(=O)(=O)O)c1 | > 200 | 148 |  |
| Nc1ccn(C2CSC(CO)CO2)c(=O)n1 (stereo unspecified) | > 513 | 407 |  |
| Brc1ccc2c(c1)[C@H]1CCc3c([nH]c4ccccc34)[C@H]1N2 | > 200 | 25.7 |  |
| C[N+](C)(C)CC(=O)N/N=C/c1oc(-c2cccc([N+](=O)[O-])c2)c(-c2cccc([N+](=O)[O-])c2)c1[N+](=O)[O-] | > 9.77 | > 9.77 |  |
| Cc1cc2c3c(c1)S(=O)(=O)c1cc(Cl)ccc1N3CCC2 | > 200 | > 200 |  |
| COc1ccc(/C=c2/sc3n(c2=O)NC2(CCCCC2)NN=3)cc1 |  |  | inactive |
| CN(C)c1ccc(/C=c2\sc3nc4ccccc4n3c2=O)cc1 | > 0.851 | > 0.851 |  |
| CN(c1ccccc1)S(=O)(=O)c1ccccc1[N+](=O)[O-] | > 200 | 64.6 |  |
| O=C(c1ccccc1)N1CCN2CCN=C(c3ccccc3)C21c1ccccc1 (stereo unspecified) | > 132 | > 132 |  |
| C=CCSCCOCn1cc(C)c(=O)[nH]c1=O | > 200 | > 200 |  |
| CCCCCC=C(c1cc(Cl)c(OC)c(C(=O)OCC)c1)c1cc(Cl)c(OC)c(C(=O)OCC)c1 | > 10 | > 10 |  |
| COc1nc(C)nc2c1ncn2Cc1ccccc1 | > 200 | > 200 |  |
| COc1cccc2c1C(=O)c1c(O)c3c(c(O)c1C2=O)CC(O)(C(O)CO)CC3OC1CC(N2CCOCC2)C(O)C(C)O1 (stereo unspecified) | > 0.2 | 0.00355 |  |
| Cc1ccc(C23c4ccccc4CCN2C(=O)C3N)cc1 (stereo unspecified) | > 603 | 117 |  |
| c1ccc2c(c1)CCc1[nH]c3c(c1-2)-c1ccccc1CC3 | > 200 | 30.9 |  |
| CCOC(=O)CC(C)CCO (stereo unspecified) | > 1550 | > 1550 |  |
| CCOC(=O)CNC(=O)Sc1ccccc1C(=O)N[C@@H](C)C(N)=O | 1.82 | 97.7 |  |
